Each compound was assayed on JAK1-dependent STAT6 phosphorylation downstream of IL-13 stimulation in TF-1 human erythroleukemia cells (assay: cells). Conditions: TF-1, read-out: IL-13-pSTAT6 IC50.

| SMILES | IC50 [µM] |
| --- | --- |
| CN1CCCCC1C1CCCN1C(=O)c1ccc(Nc2nc3c(N4CCC(O)(c5ccc(Cl)cc5)CC4)cccn3n2)cc1 (centres unmarked) [Example 1-52, [4-[[8-[4-(4-chlorophenyl)-4-hydroxy-1-piperidyl]-[1,2,4]triazolo[1,5-a]pyridin-2-yl]amino]phenyl]-[2-(1-methyl-2-piperidyl)pyrrolidin-1-yl]methanone] | 0.0211 |
| CN1CCC(NC(=O)c2ccc(Nc3nc4c(N5CCC(O)(c6ccc(Cl)cc6)CC5)cccn4n3)cc2)C1 (centres unmarked) [Example 1-62, 4-[[8-[4-(4-chlorophenyl)-4-hydroxy-1-piperidyl]-[1,2,4]triazolo[1,5-a]pyridin-2-yl]amino]-N-(1-methylpyrrolidin-3-yl)benzamide] | 0.0228 |
| CN(C)C(=O)C1(c2ccncc2)CCCN1C(=O)c1ccc(Nc2nc3c(N4CCC(O)(c5ccc(Cl)cc5)CC4)cccn3n2)cc1 (centres unmarked) [Example 1-74, 1-[4-[[8-[4-(4-chlorophenyl)-4-hydroxy-1-piperidyl]-[1,2,4]triazolo[1,5-a]-pyridin-2-yl]amino]benzoyl]-N,N-dimethyl-2-(4-pyridyl)pyrrolidine-2-carboxamide] | 0.0335 |
| O=C(N[C@H]1CN2CCC1CC2)c1ccc(Nc2nc3c(N4CCC(O)(c5ccc(Cl)cc5)CC4)cccn3n2)cc1 [Example 1-89, 4-[[8-[4-(4-chlorophenyl)-4-hydroxy-1-piperidyl]-[1,2,4]triazolo[1,5-a]pyridin-2-yl]amino]-N-[(3R)-quinuclidin-3-yl]benzamide] | 0.127 |
| CN1CC(NC(=O)c2ccc(Nc3nc4c(N5CCC(O)(c6ccc(Cl)cc6)CC5)cccn4n3)cc2)C1 [Example 1-92, 4-[[8-[4-(4-chlorophenyl)-4-hydroxy-1-piperidyl]-[1,2,4]triazolo[1,5-a]pyridin-2-yl]amino]-N-(1-methylazetidin-3-yl)benzamide] | 0.0593 |
| O=C(NCCN1CCC(O)CC1)c1ccc(Nc2nc3c(N4CCC(O)(c5ccc(Cl)cc5)CC4)cccn3n2)cc1 [Example 1-95, 4-[[8-[4-(4-chlorophenyl)-4-hydroxy-1-piperidyl]-[1,2,4]triazolo[1,5-a]pyridin-2-yl]amino]-N-[2-(4-hydroxy-1-piperidyl)ethyl] benzamide] | 0.115 |
| CN1CCN(CCCNC(=O)c2ccc(Nc3nc4c(N5CCC(O)(c6ccc(Cl)cc6)CC5)cccn4n3)cc2)CC1 [Example 1-96, 4-[[8-[4-(4-chlorophenyl)-4-hydroxy-1-piperidyl]-[1,2,4]triazolo[1,5-a]pyridin-2-yl]amino]-N-[3-(4-methylpiperazin-1-yl)propyl]benzamide] | 0.0646 |
| CN1CCN(CCNC(=O)c2ccc(Nc3nc4c(N5CCC(O)(c6ccc(Cl)cc6)CC5)cccn4n3)cc2)CC1 [Example 1-97, 4-[[8-[4-(4-chlorophenyl)-4-hydroxy-1-piperidyl]-[1,2,4]triazolo[1,5-a]pyridin-2-yl]amino]-N-[2-(4-methylpiperazin-1-yl)ethyl]benzamide] | 0.025 |
| O=C(NCCN1CCOCC1)c1ccc(Nc2nc3c(N4CCC(O)(c5ccc(Cl)cc5)CC4)cccn3n2)cc1 [Example 1-101, 4-[[8-[4-(4-chlorophenyl)-4-hydroxy-1-piperidyl]-[1,2,4]triazolo[1,5-a]pyridin-2-yl]amino]-N-(2-morpholinoethyl)benzamide] | 0.014 |
| CN1CCCCC1CNC(=O)c1ccc(Nc2nc3c(N4CCC(O)(c5ccc(Cl)cc5)CC4)cccn3n2)cc1 (centres unmarked) [Example 1-103, 4-[[8-[4-(4-chlorophenyl)-4-hydroxy-1-piperidyl]-[1,2,4]triazolo[1,5-a]pyridin-2-yl]amino]-N-[(1-methyl-2-piperidyl)methyl]benzamide] | 0.0238 |
| CN1CCC(NC(=O)c2ccc(Nc3nc4c(N5CCC(O)(c6ccc(Cl)cc6)CC5)cccn4n3)cc2)CC1 [Example 1-105, 4-[[8-[4-(4-chlorophenyl)-4-hydroxy-1-piperidyl]-[1,2,4]triazolo[1,5-a]pyridin-2-yl]amino]-N-(1-methyl-4-piperidyl)benzamide] | 0.0141 |
| CN(Cc1ccncc1)C(=O)c1ccc(Nc2nc3c(N4CCC(O)(c5ccc(Cl)cc5)CC4)cccn3n2)cc1 [Example 1-111, 4-[[8-[4-(4-chlorophenyl)-4-hydroxy-1-piperidyl]-[1,2,4]triazolo[1,5-a]pyridin-2-yl]amino]-N-methyl-N-(4-pyridylmethyl)benzamide] | 0.0156 |
| CN1CCN(C(=O)C2CCN(C(=O)c3ccc(Nc4nc5c(N6CCC(O)(c7ccc(Cl)cc7)CC6)cccn5n4)cc3)CC2)CC1 [Example 1-113, [4-[[8-[4-(4-chlorophenyl)-4-hydroxy-1-piperidyl]-[1,2,4]triazolo[1,5-a]pyridin-2-yl]amino]phenyl]-[4-(4-methylpiperazine-1-carbonyl)-1-piperidyl]methanone] | 0.0267 |

Continued, values first:

| IC50 [µM] | SMILES |
| --- | --- |
| 0.0274 | CC(=O)N1CC2(C1)CN(C(=O)c1ccc(Nc3nc4c(N5CCC(O)(c6ccc(Cl)cc6)CC5)cccn4n3)cc1)C2 [Example 1-53, 1-[2-[4-[[8-[4-(4-chlorophenyl)-4-hydroxy-1-piperidyl]-[1,2,4]triazolo[1,5-a]pyridin-2-yl]amino]benzoyl]-2,6-diazaspiro[3.3]heptan-6-yl]ethanone] |
| 0.1 | O=C(c1ccc(Nc2nc3c(N4CCC(O)(c5ccc(Cl)cc5)CC4)cccn3n2)cc1)N1CCN(C2CC2)CC1 [Example 1-54, [4-[[8-[4-(4-chlorophenyl)-4-hydroxy-1-piperidyl]-[1,2,4]triazolo[1,5-a]pyridin-2-yl]amino]phenyl]-(4-cyclopropylpiperazin-1-yl)methanone] |
| 0.0155 | CN1CCC2(C1)CN(C(=O)c1ccc(Nc3nc4c(N5CCC(O)(c6ccc(Cl)cc6)CC5)cccn4n3)cc1)C2 [Example 1-59, [4-[[8-[4-(4-chlorophenyl)-4-hydroxy-1-piperidyl]-[1,2,4]triazolo[1,5-a]pyridin-2-yl]amino]phenyl]-(7-methyl-2,7-diazaspiro[3.4]octan-2-yl)methanone] |
| 0.0122 | CN1CCCC12CN(C(=O)c1ccc(Nc3nc4c(N5CCC(O)(c6ccc(Cl)cc6)CC5)cccn4n3)cc1)C2 [Example 1-60, [4-[[8-[4-(4-chlorophenyl)-4-hydroxy-1-piperidyl]-[1,2,4]triazolo[1,5-a]pyridin-2-yl]amino]phenyl]-(5-methyl-2,5-diazaspiro[3.4]octan-2-yl)methanone] |
| 0.0127 | CN1C[C@@H]2CCN(C(=O)c3ccc(Nc4nc5c(N6CCC(O)(c7ccc(Cl)cc7)CC6)cccn5n4)cc3)[C@@H]2C1 [Example 1-76, [(3aS,6aS)-5-methyl-2,3,3a,4,6,6a-hexahydropyrrolo[2,3-c]pyrrol-1-yl]-[4-[[8-[4-(4-chlorophenyl)-4-hydroxy-1-piperidyl]-[1,2,4]triazolo[1,5-a]pyridin-2-yl]amino]phenyl] methanone] |
| 0.0109 | CN1CCC2(CC1)CN(C(=O)c1ccc(Nc3nc4c(N5CCC(O)(c6ccc(Cl)cc6)CC5)cccn4n3)cc1)C2 [Example 1-81, [4-[[8-[4-(4-chlorophenyl)-4-hydroxy-1-piperidyl]-[1,2,4]triazolo[1,5-a]pyridin-2-yl]amino]phenyl]-(7-methyl-2,7-diazaspiro[3.5]nonan-2-yl)methanone] |
| 0.0213 | CN(C)C1CCN(C(=O)c2ccc(Nc3nc4c(N5CCC(O)(c6ccc(Cl)cc6)CC5)cccn4n3)cc2)CC1 [Example 1-86, [4-[[8-[4-(4-chlorophenyl)-4-hydroxy-1-piperidyl]-[1,2,4]triazolo[1,5-a]pyridin-2-yl]amino]phenyl]-[4-(dimethylamino)-1-piperidyl]methanone] |

Reference: US9873709B2 (priority 2013, dated 2018)
